Data as given in ChEMBL document CHEMBL3046749, “Synthesis and antimicrobial activity of novel bis-azaphenothiazines” (2013).
In brackets after ≈: the same amount, converted by molar mass. Activity calls are given as the source filed them. The calls are words filed in the database; no cut-off is given here.

Key:
Format in all cases: functional
Staphylococcus aureus [1] = test: Antibacterial activity against Staphylococcus aureus MTCC 096 at 100 ug/ml after 16 to 18 hr by cup-plate method; conditions: read-out: IZ
Staphylococcus aureus [2] = test: Antibacterial activity against Staphylococcus aureus MTCC 096 after 16 hr by cup-plate method; conditions: MTCC 096, 16 h
Aspergillus fumigatus [3] = test: Antifungal activity against Aspergillus fumigatus MTCC 343 after 28 to 30 hr by cup-plate method
Pseudomonas aeruginosa [4] = test: Antibacterial activity against Pseudomonas aeruginosa MTCC 424 at 100 ug/ml after 16 to 18 hr by cup-plate method; conditions: read-out: IZ
Escherichia coli [5] = test: Antibacterial activity against Escherichia coli MTCC 443 at 100 ug/ml after 16 to 18 hr by cup-plate method; conditions: read-out: IZ
[6] = tested on: Staphylococcus epidermidis; test: Antibacterial activity against Staphylococcus epidermidis MTCC 435 after 16 hr by cup-plate method; conditions: MTCC 435, 16 h
Candida albicans [7] = test: Antifungal activity against Candida albicans MTCC 227 after 28 to 30 hr by cup-plate method
Pseudomonas aeruginosa [8] = test: Antibacterial activity against Pseudomonas aeruginosa MTCC 424 after 16 hr by cup-plate method; conditions: MTCC 424, 16 h
Aspergillus flavus [9] = test: Antifungal activity against Aspergillus flavus MTCC 277 at 100 ug/ml after 28 to 30 hr by cup-plate method; conditions: read-out: IZ
Bacillus subtilis [10] = test: Antibacterial activity against Bacillus subtilis MTCC 441 after 16 hr by cup-plate method; conditions: MTCC 441, 16 h
[11] = tested on: Staphylococcus epidermidis; test: Antibacterial activity against Staphylococcus epidermidis MTCC 435 at 100 ug/ml after 16 to 18 hr by cup-plate method; conditions: read-out: IZ
Aspergillus niger [12] = test: Antifungal activity against Aspergillus niger MTCC 282 at 100 ug/ml after 28 to 30 hr by cup-plate method; conditions: for zone of inhibition at 100 µg/mL: read-out: IZ
Escherichia coli [13] = test: Antibacterial activity against Escherichia coli MTCC 443 after 16 hr by cup-plate method; conditions: MTCC 443, 16 h
Klebsiella pneumoniae [14] = test: Antibacterial activity against Klebsiella pneumoniae MTCC 432 after 16 hr by cup-plate method; conditions: MTCC 432, 16 h
Aspergillus niger [15] = test: Antifungal activity against Aspergillus niger MTCC 282 after 28 to 30 hr by cup-plate method
Aspergillus flavus [16] = test: Antifungal activity against Aspergillus flavus MTCC 277 after 28 to 30 hr by cup-plate method
Candida albicans [17] = test: Antifungal activity against Candida albicans MTCC 227 at 100 ug/ml after 28 to 30 hr by cup-plate method; conditions: read-out: IZ
Salmonella typhi = test: Antibacterial activity against Salmonella enterica subsp. enterica serovar Typhi MTCC 733 at 100 ug/ml after 16 to 18 hr by cup-plate method; conditions: read-out: IZ
Klebsiella pneumoniae [18] = test: Antibacterial activity against Klebsiella pneumoniae MTCC 432 at 100 ug/ml after 16 to 18 hr by cup-plate method; conditions: read-out: IZ
Aspergillus fumigatus [19] = test: Antifungal activity against Aspergillus fumigatus MTCC 343 at 100 ug/ml after 28 to 30 hr by cup-plate method; conditions: read-out: IZ
Bacillus subtilis [20] = test: Antibacterial activity against Bacillus subtilis MTCC 441 at 100 ug/ml after 16 to 18 hr by cup-plate method; conditions: read-out: IZ

SMILES | zone of inhibition at 100 µg/mL (Staphylococcus aureus [1]) [mm] | MIC (Staphylococcus aureus [2]) [µg/mL] | MIC (Aspergillus fumigatus [3]) [µg/mL] | zone of inhibition at 100 µg/mL (Pseudomonas aeruginosa [4]) [mm] | zone of inhibition at 100 µg/mL (Escherichia coli [5]) [mm] | MIC [6] [µg/mL] | MIC (Candida albicans [7]) [µg/mL] | MIC (Pseudomonas aeruginosa [8]) [µg/mL] | zone of inhibition at 100 µg/mL (Aspergillus flavus [9]) [mm] | MIC (Bacillus subtilis [10]) [µg/mL] | zone of inhibition at 100 µg/mL [11] [mm] | zone of inhibition at 100 µg/mL (Aspergillus niger [12]) [mm] | MIC (Escherichia coli [13]) [µg/mL] | MIC (Klebsiella pneumoniae [14]) [µg/mL] | MIC (Aspergillus niger [15]) [µg/mL] | MIC (Aspergillus flavus [16]) [µg/mL] | zone of inhibition at 100 µg/mL (Candida albicans [17]) [mm] | zone of inhibition at 100 µg/mL (Salmonella typhi) [mm] | zone of inhibition at 100 µg/mL (Klebsiella pneumoniae [18]) [mm] | zone of inhibition at 100 µg/mL (Aspergillus fumigatus [19]) [mm] | further results
Fc1ccc2c(c1)Sc1cccnc1N2CCCCCCN1c2ccc(F)cc2Sc2cccnc21 | 12 | 25 (≈ 48.2 µM) | 25 (≈ 48.2 µM) | 13 | 12 | 12.5 (≈ 24.1 µM) | 6.25 (≈ 12.1 µM) | 6.25 (≈ 12.1 µM) | 12 | 25 (≈ 48.2 µM) | 12 | 10 | 12.5 (≈ 24.1 µM) | 50 (≈ 96.4 µM) | 50 (≈ 96.4 µM) | 12.5 (≈ 24.1 µM) | 13 | 12 | 11 | 11 | zone of inhibition at 100 µg/mL (Bacillus subtilis [20]): 12 mm
CC(=O)Nc1ccc(Cl)cc1Sc1ncccc1[N+](=O)[O-] | 12 | 25 (≈ 77.2 µM) | 12.5 (≈ 38.6 µM) | 14 | 12 | 6.25 (≈ 19.3 µM) | 6.25 (≈ 19.3 µM) | 6.25 (≈ 19.3 µM) | 12 | 25 (≈ 77.2 µM) | 13 | 14 | 12.5 (≈ 38.6 µM) | 6.25 (≈ 19.3 µM) | 6.25 (≈ 19.3 µM) | 25 (≈ 77.2 µM) | 14 | 12 | 13 | 12 | zone of inhibition at 100 µg/mL (Bacillus subtilis [20]): 12 mm
Brc1ccc2c(c1)Sc1cccnc1N2CCCCCCN1c2ccc(Br)cc2Sc2cccnc21 | 12 | 25 (≈ 39 µM) | 25 (≈ 39 µM) | 13 | 12 | 6.25 (≈ 9.76 µM) | 25 (≈ 39 µM) | 6.25 (≈ 9.76 µM) | 12 | 12.5 (≈ 19.5 µM) | 14 | 11 | 6.25 (≈ 9.76 µM) | 25 (≈ 39 µM) | > 50 | 12.5 (≈ 19.5 µM) | 11 | 11 | 12 | 11 | zone of inhibition at 100 µg/mL (Bacillus subtilis [20]): 13 mm
CC(=O)Nc1ccc(Br)cc1Sc1ncccc1[N+](=O)[O-] | 12 | 25 (≈ 67.9 µM) | 6.25 (≈ 17 µM) | 14 | 11 | 6.25 (≈ 17 µM) | 6.25 (≈ 17 µM) | 6.25 (≈ 17 µM) | 12 | 25 (≈ 67.9 µM) | 13 | 16 | > 50 | 6.25 (≈ 17 µM) | 6.25 (≈ 17 µM) | 12.5 (≈ 33.9 µM) | 13 | 11 | 13 | 14 | zone of inhibition at 100 µg/mL (Bacillus subtilis [20]): 12 mm
Brc1ccc2c(c1)Sc1cccnc1N2C/C=C/CN1c2ccc(Br)cc2Sc2cccnc21 | 12 | 25 (≈ 41 µM) | 12.5 (≈ 20.5 µM) | 10 | 12 | > 50 | > 50 | > 50 | 11 | 25 (≈ 41 µM) | 11 | – | 12.5 (≈ 20.5 µM) | 50 (≈ 81.9 µM) | > 50 | > 50 | 10 | 11 | 11 | 12 | inhibition zone (IZ) (Aspergillus niger [12]): inactive; zone of inhibition at 100 µg/mL (Bacillus subtilis [20]): 11 mm
Clc1ccc(COC(Cn2ccnc2)c2ccc(Cl)cc2Cl)c(Cl)c1 (stereo not drawn) [MICONAZOLE] | – | – | 6.25 (≈ 15 µM) | – | – | – | 6.25 (≈ 15 µM) | – | 17 | – | – | 18 | – | – | 6.25 (≈ 15 µM) | 12.5 (≈ 30 µM) | 19 | – | – | 15 | –
